Assay results: patent US4507485A, “3,4-Disubstituted-1,2,5-oxadiazoles having histamine H2 -receptor antagonist activity” (Bristol-Myers Company, priority 1984, dated 1985)

Legend:
gastric secretion = settings: cited from earlier work
[1] = in vivo; cited from earlier work
histamine H2-receptor = settings: cited from earlier work; for histamine H2-antagonist potency/effectiveness: compared with burimamide or metiamide
[2] = in vivo; cited from earlier work; remark: listed apart in the source
peptic ulcer disease = settings: clinical evaluation; cited from earlier work
[3] = test system: gastric secretion (gastric fistula rat); histamine H2-receptor; experiment: Gastric antisecretory activity in the gastric fistula rat; format: in vivo, rat (male Long Evans); settings: sc; for Potency Ratio: relative to cimetidine = 1.0
Protocol: Male Long Evans rats weighing about 240-260 grams at the time of cannula implantation are used. […] The fistula components are designed and the operative procedure is carried out exactly as described in the above reference. Post operatively the animals are individually housed in solid bottom cages with sawdust and are allowed food and water ad libitum throughout the entire recovery period. Animals are not used for test purposes for at least 15 days after the operative procedure. The animals are fasted but allowed water ad libitum for 20 hours before the testing procedure is to begin. […] The catheter is then screwed into the cannula in place of the plugging screw and the rat is placed in a clear plastic rectangular cage measuring 40 cm long, 15 cm wide and 13 cm high. The bottom of the cage has a slit approximately 1.5 cm wide and 25 cm long running down the center to accommodate the catheter which hangs through it. […] Chem. Path. […] Gastric secretions collected during the first hour after washing the stomach are discarded as they may be contaminated. For oral evaluation, the catheter is then removed from the cannula and replaced with the plugging screw. […] After this time the plugging screw is removed and replaced with a catheter to which a small plastic vial has been attached to collect the gastric secretions. […] The secretions in the second sample are compared to those of the control sample in order to determine the effects of the test drug. […] Results are expressed as percent inhibition relative to control readings. Dose response curves are constructed and ED50 values are calculated by regression analyses. At least three rats are used at each dosage level and a minimum of three dosage levels are utilized for determination of a dose response curve.

[4] = test system: gastric secretion (Heidenhain pouch dog); experiment: Gastric antisecretory activity in the Heidenhain pouch dog; format: in vivo, dog (female); settings: iv; for ED50: Canis lupus familiaris, histamine infusion
Protocol: Prior to surgery, hematology and blood chemistry profiles are obtained and an assessment made as to the general health of selected female dogs. Dogs are vaccinated with Tissue Vax 5 (DHLP--Pitman-Moore) and housed in general animal quarters for four weeks' observation so incipient diseases may become apparent. Dogs are fasted with water ad libitum 24 hours prior to surgery.
Anesthesia is induced with Sodium Pentothal (Abbott) 25-30 mg/kg iv. Subsequent anesthesia is maintained with methoxyflurane (Pitman-Moore). A mid-line linea alba incision from xiphoid to umbilicus provides good exposure and ease of closure. The stomach is pulled up into the operative field, the greater curvature stretched out at multiple points and clamps placed along the selected line of incision. The pouch is made from the corpus of the stomach so that true parietal cell juice is obtained. About 30% of the corpus volume is resected. […]
Ninety minutes' infusion are allowed for the dogs to reach a steady state of acid output. […] Each sample is measured to the nearest 0.5 ml and titratable acidity is determined by titrating a 1 ml sample to pH 7.0 with 0.2N NaOH, using an Autoburet and an electrometric pH meter (Radiometer). Titratable acid output is calculated in microequivalents by multiplying the volume in milliliters by the acid concentration in milliequivalents per liter.
Results are expressed as percent inhibition relative to control readings and the response is the average for five days at that dose level.

Row | Structure (SMILES) | histamine H2-antagonist potency/effectiveness (histamine H2-receptor) | toxicity (agranulocytosis) [2] | ED50 [3] [µmol/kg] | Potency Ratio [3] | ED50 [4] [mg/kg] | other results
1 | CNC(=S)NCCCCc1cnc[nH]1 [Burimamide] | – | – | – | – | – | inhibition of gastric secretion (gastric secretion; animals, including man): inhibits gastric secretion in animals, including man; oral absorption [1]: poor; clinical effectiveness as histamine H2-receptor antagonist (histamine H2-receptor; clinical): first clinically effective
2 | CN=C(NC#N)NCCSCc1[nH]cnc1C [Cimetidine] | as effective an histamine H2 -antagonist as metiamide | without producing agranulocytosis | – | – | – | therapeutic effect in peptic ulcer disease (peptic ulcer disease): effective therapeutic agent in the treatment of peptic ulcer disease
3 | Nc1nonc1NCCCOc1cccc(CN2CCCCC2)c1 [Example 1, 3-Amino-4-[3-(3-piperidinomethylphenoxy)propylamino]-1,2,5-oxadiazole] | – | – | 0.18 | 19.3 | 0.03 | Potency Ratio ([4]; relative to ranitidine = 1.0): 1.8
4 | CN(C)Cc1ccc(CSCCNc2nonc2N)o1 [Example 2, 3-Amino-4-{2-[(5-dimethylaminomethyl-2-furyl)methylthio]ethylamino}-1,2,5-oxadiazole] | – | – | 5 | 0.70 | – | –
5 | CNC(=S)NCCSCc1[nH]cnc1C [Metiamide] | more potent than burimamide | toxicity (agranulocytosis) | – | – | – | oral activity in man (gastric secretion; oral, man): orally active in man
6 | CNC(=C[N+](=O)[O-])NCCSCc1ccc(CN(C)C)o1 [Ranitidine] | – | – | – | – | 0.054 | –
